Strand notation (5' to 3'): a small letter for the sugar, then the base; units joined by * are phosphorothioate-linked, units joined directly phosphodiester-linked; [ ] holds rarer units or linkages, { } end groups; capitals alone tell only the bases. [invdT] = inverted (3'-3') thymidine; d = 2'-deoxy (DNA)
Columns and labels:
[1] = tested on: bovine aortic endothelial cells; assay: 3H-thymidine incorporation into DNA, aortic endothelial cells; format: cell-based; conditions: for insulin-inducible DNA synthesis: inhibitor added 2 h before insulin 500 nM, PD98059 10 and 30 μM, wortmannin 0.3 and 1 μM, SB202190 100 and 500 nM; for basal endothelial DNA synthesis: no added insulin, 0.25% serum
Method: ^3H-Thymidine incorporation into DNA. Growth-arrested endothelial cells at 90% confluence in 96 well plates were incubated twice with the oligonucleotides prior to the addition of insulin. […] After 18 h of exposure to insulin, the cells were pulsed with 200,000 cpm/well of methyl-3H thymidine (NEN-DuPont) for 6 h.

Egr-1 [2] = assay: Transient transfection CAT reporter assay (pEBS1^3foscat), Egr-1-dependent gene expression; format: cell-based, bovine; conditions: growth-arrested endothelial cells, 24 h; glucose 5 to 30 mM, insulin 100 nM, FGF-2 25 ng/ml
Method: Transient transfection analysis and, CAT assay. The endothelial cells were grown to 60-70% confluence in 100 mm. dishes and transiently transfected with 10 μg of the indicated chloramphenicol acetyl transferase (CAT)-based promoter reporter construct using FuGENE6 (Roche). The cells were rendered growth-quiescent by incubation 48 h in 0.25% FBS, and stimulated with various agonists for 24 h prior to harvest and assessment of CAT activity. CAT activity was measured and normalized to the concentration of protein in the lysates (determined by Biorad Protein Assay) as previously described (Khachigian, L. M. and Chesterman, C. N. (1999), Circ. Res., 84:1258-1267).

NGFI-A protein = assay: Western blot of NGFI-A protein in SMCs; format: cell-based, rat; conditions: 5% FBS 1 h
Method: (§1) Culture conditions and DNAzyme transfection. Primary rat aortic SMCs were obtained from Cell Applications, Inc., and grown in Waymouth's medium, pH 7.4, containing 10% fetal bovine serum (FBS), 50 μg/ml streptomycin and 50 IU/ml penicillin at 37° C. in a humidified atmosphere of 5% CO2 SMCs were used in experiments between passages 3-7. Pup rat SMCs (WKY12-22 (as described in Lernire et al, 1994, the entire contents of which are incorporated herein by reference)) were grown under similar conditions. Subconfluent (60-70%) SMCs were incubated in serum-free medium (SFM) for 6 h prior to DNAzyme (or antisense ODN, where indicated) transfection (0.1 μM) using Superfect in accordance with manufacturer's instructions (Qiagen). After 18 h, the cells were washed with phosphate-buffered saline (PBS), pH 7.4 prior to transfection a second time in 5% FBS.
Western blot analysis. Growth-quiescent SMCs in 100 mm plates (Nunc-InterMed) were transfected with ED5 or ED5SCR as above, and incubated with 5% FBS for 1 h. The cells were washed in cold PBS, pH 7.4, and extracted in 150 mM NaCl, 50 mM Tris-HCI, pH 7.5, […], 0.1% SDS, 1% Triton X-100, 5 mM EDTA, 1% trasylol, 10μ/ml leupeptin, 1% aprotinin and 2 mM PMSF. Twenty four μg protein samples were loaded onto 10% denaturing SDS-polyacrylamide gels and electroblotted onto PVDF nylon membranes (NEN-DuPont). […]

Egr-1 protein = assay: Western blot of Egr-1 protein in endothelial cells; format: cell-based, bovine; conditions: for insulin-inducible Egr-1 protein synthesis: 0.8 μM oligonucleotide
Method: Antisense oligonucleotide delivery and Western blot analysis. Growth arrested cells in 100 mm dishes were incubated with the indicated oligonucleotides 24 h and 48 h after the initial change of medium. When oligonucleotide was added a second time, the cells were incubated with various concentrations of insulin and harvest 1 h subsequently. […] Lysates were resolved by electrophoresis on 8% denaturing SDS-polyacrylamide gels, transferred to PDVF nylon membranes (NEN-DuPont), blocked with skim milk powder, then incubated with polyclonal antibodies to Egr-1 (Santa Cruz Biotechnology, Inc) and monoclonal horseradish peroxidase-linked mouse anti-rabbit Ig secondary antibodies followed by chemiluminescent detection (NEN-DuPont).

[3] = tested on: bovine aortic endothelial cells; assay: In vitro injury (scrape) endothelial regrowth; format: cell-based; conditions: for endothelial regrowth stimulated by insulin after injury: 0.8 μM oligonucleotide
Method: In vitro injury. Growth-arrested cells at 90% confluence were incubated with antisense oligonucleotides and insulin at various concentrations as described above, then were scraped by drawing a sterile wooden toothpick across the monolayer (Khachigian et al., 1996). Following 48-72 h, the cells were fixed in 4% formalin, stained with hemotoxylin/eosin then photographed.

EGR-1 [4] = assay: Western blot of EGR-1 in HepG2 cells; format: cell-based, human
Egr-1 mRNA = assay: RT-PCR and Northern blot of Egr-1 mRNA in endothelial cells; format: cell-based, bovine; conditions: growth-quiescent endothelial cells, within 1 h of agonist
Method: Northern blot analysis. Total RNA (12 μg/well) of growth-arrested endothelial cells (prepared using TRIzol Reagent (Life Technologies) in accordance with the manufacturer's instructions) previously exposed to various agonists for 1 h was resolved by electrophoresis on denaturing 1% agarose-formialdehyde gels. Following transfer overnight to Hybond-N+ nylon membranes (Amersham), the blots were hybridized with ^32P-labeled Egr-1 cDNA prepared using the Nick Translation Kit overnight (Roche). The membranes were washed and radioactivity visualized by autoradiography as previously described (Khachigian et al., 1995).
RT-PCR. Reverse transcription was performed with 8 μg of total RNA using M-MLV reverse transcriptase. Egr-1 cDNA was amplified (334 bp product (Delbridge, G. J. and Khachigian, L. M. (1997), Circ. Res., 81:282-288)) using Taq polymerase by heating for 1 min at 94° C., and cycling through 94° C. for 1 min, 94° C. for 1 min, 55° C. for 1 min, and 72° C. for 1 min. Following thirty cycles, a 5 min extension at 72° C. was carried out. Samples were electrophoresed on 1.5% agarose gel containing ethidium bromide and photographed under ultraviolet illumination. β-actin amplification (690 bp product) was performed essentially as above. The sequences of the primers were: Egr-1 forward primer (5′-GCA CCC AAC AGT GGC AAC-3′) (SEQ ID NO:18), Egr-1 reverse primer (5′-GGG ATC ATG GGA ACC TGG-3′) (SEQ ID NO: 19), β-actin forward primer (5′-TGACGGGGTCACCCACACTGTGCCCATCTA 3′) (SEQ ID NO:20), and β-actin reverse primer (5′-CTAGAAGCATTTGCGGTGGACGATGGAGGG-3′) (SEQ ID NO:21).

Primary rat aortic SMCs = assay: SMC proliferation assay (Coulter counter); format: cell-based
Method: as §1, with “Subconfluent (60-70%) SMCs were incubated in serum-free medium (SFM) for 6 h prior to DNAzyme (or antisense ODN, where indicated) transfection (0.1 μM) using Superfect in accordance with manufacturer's instructions (Qiagen).” left out
Assays of cell proliferation. Growth-quiescent SMCs in 96-well titer plates (Nunc-InterMed) were transfected with ED5 or ED5SCR as above, then exposed to 5% FBS at 37° C. for 72 h. The cells were rinsed with PBS, pH 7.4, trypsinized and the suspension was quantitated using an automated Coulter counter.

Sequence of EGR-1 (P18146 whole entry): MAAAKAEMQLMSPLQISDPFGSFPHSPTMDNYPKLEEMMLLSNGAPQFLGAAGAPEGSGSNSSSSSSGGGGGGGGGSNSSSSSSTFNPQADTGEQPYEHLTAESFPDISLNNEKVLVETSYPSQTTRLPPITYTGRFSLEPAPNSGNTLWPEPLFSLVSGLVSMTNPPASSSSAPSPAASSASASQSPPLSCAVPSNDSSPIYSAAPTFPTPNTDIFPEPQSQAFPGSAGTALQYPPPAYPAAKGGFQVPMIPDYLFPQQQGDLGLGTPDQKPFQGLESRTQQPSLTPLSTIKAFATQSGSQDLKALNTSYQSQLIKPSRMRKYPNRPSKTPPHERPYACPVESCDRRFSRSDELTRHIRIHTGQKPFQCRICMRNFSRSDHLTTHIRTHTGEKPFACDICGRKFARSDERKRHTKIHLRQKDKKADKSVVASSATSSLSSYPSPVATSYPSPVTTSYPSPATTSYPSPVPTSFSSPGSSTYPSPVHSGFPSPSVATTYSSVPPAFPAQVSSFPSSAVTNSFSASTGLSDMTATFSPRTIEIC

Oc1ccc(-c2nc(-c3ccncc3)c(-c3ccc(F)cc3)[nH]2)cc1 [SB202190, reference compound]
insulin-inducible DNA synthesis [1]: failed to affect DNA synthesis

O=C[C@H](O)[C@@H](O)[C@H](O)[C@H](O)CO [glucose]
Egr-1 binding activity (CAT reporter activity) (Egr-1 [2]): did not increase

COc1cccc(-c2cc(=O)c3ccccc3o2)c1N [PD98059, reference compound]
insulin-inducible DNA synthesis [1]: inhibited insulin-inducible DNA synthesis in a dose-dependent manner

EDC: DNAzyme with identical catalytic domain flanked by nonsense arms, 5′-CGCCATTAGGCTAGCTACAACGACCTAGTGAT-3′; 3′T inverted (DNA CGCCATTAGGCTAGCTACAACGACCTAGTGA; DNA, [invdT] at 3' end, backbone not given here)
serum-induction of NGFI-A protein (NGFI-A protein): neither ED5SCR nor EDC, a DNAzyme bearing an identical catalytic domain as ED5 and ED5SCR but flanked by nonsense arms had any influence

AS2C: size-matched phosphorothioate-linked counterpart of AS2 with similar base composition, 5′-GsCsAsCsTsTsCsTsGsCsTsGsTsCsC-3′ (DNA dG*dC*dA*dC*dT*dT*dC*dT*dG*dC*dT*dG*dT*dC*dC) [reference compound]
insulin-inducible Egr-1 protein synthesis (Egr-1 protein): lack of attenuation
basal endothelial DNA synthesis ([1]; 0.8 μM oligonucleotide): little effect
endothelial regrowth stimulated by insulin after injury [3]: not significantly different

SEQ ID NO:24: size matched DNAzyme with different sequence, 5′-tcagctgcaGGCTAGCTACAACGActcggcctt (DNA TCAGCTGCAGGCTAGCTACAACGACTCGGCCT; DNA, [invdT] at 3' end, backbone not given here) [reference compound]
EGR-1 expression in HepG2 cells (EGR-1 [4]): no effect

fibroblast growth factor-2 [FGF-2]
Egr-1 binding activity (CAT reporter activity) (Egr-1 [2]): increased
Egr-1 mRNA levels (Egr-1 mRNA): elevated steady-state Egr-1 mRNA levels

CCCCCCCCCCCCCC(=O)O[C@@H]1[C@@H](C)[C@@]2(O)[C@@H](C=C(CO)C[C@]3(O)C(=O)C(C)=C[C@@H]23)[C@@H]2C(C)(C)[C@]12OC(C)=O [PMA, Phorbol-12-myristrate 13-acetate, reference compound]
Egr-1 mRNA levels (Egr-1 mRNA): elevated steady-state Egr-1 mRNA levels

AS2: Phosphorothioate-linked antisense oligonucleotide to translational start site of Egr-1 mRNA, 5′-CsTsTsGsGsCsCsGsCsTsGsCsCsAsT-3′ (DNA dC*dT*dT*dG*dG*dC*dC*dG*dC*dT*dG*dC*dC*dA*dT)
insulin-inducible Egr-1 protein synthesis (Egr-1 protein): inhibited
insulin-inducible 3H-thymidine incorporation ([1]; 0.4 μM oligonucleotide (vs 0.8 μM), insulin 500 nM): less effectively
DNA synthesis inducible by insulin ([1]; 0.8 μM oligonucleotide, insulin 500 nM and 1000 nM): significantly inhibited
basal endothelial DNA synthesis ([1]; 0.8 μM oligonucleotide): inhibited
endothelial regrowth stimulated by insulin after injury [3]: significantly inhibited
inhibition of SMC proliferation stimulated by serum (Primary rat aortic SMCs; 0.1 μM, 5% FBS, 3 days): failed to inhibit proliferation
SMC growth (Primary rat aortic SMCs; 1 μM): able to inhibit SMC growth

insulin
Egr-1 binding activity (CAT reporter activity) (Egr-1 [2]): did increase
Egr-1 mRNA levels (Egr-1 mRNA): elevated steady-state Egr-1 mRNA levels
Egr-1 protein synthesis (Egr-1 protein; insulin 100 nM and 500 nM, within 1 h): induced Egr-1 protein synthesis
increase in DNA synthesis ([1]; insulin 100 nM): 100%
increase in DNA synthesis ([1]; insulin 500 nM): 200%
population of cells in the denuded zone after injury ([3]; insulin 500 nM at time of injury, 3 days): significantly increased

Source: patent publication US20030203864A1, “Treatment of cancer” (priority 2002, published 2003)
